Article PMC5515971, “Utility of spherical human liver microtissues for prediction of clinical drug-induced liver injury” (Archives of Toxicology, 2017)
Read-outs that look alike come from different tables or passages of the source.

Key:
[1] = ref Chen et al 2016 / Chen et al 2011; cited from earlier work
[2] = cited from earlier work; for DILI category: clinical, from literature and product labels
[3] = cited from earlier work
[4] = system: 3D human liver microtissues (hLiMT); assay: Cytotoxicity (cellular ATP) in 3D human liver microtissues, 5-6 days treatment; format: cell-based; conditions: read-out: IC50 SHORT;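 also: Hanging-drop spheroids, seven-point dilution series, re-dosed on day 3, CellTiter-Glo 2.0 luminescence, normalized to 0.5 or 1% DMSO vehicle controls on the same plate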
[5] = system: 3D human liver microtissues (hLiMT); assay: Cytotoxicity (cellular ATP, CellTiter-Glo 2.0) in 3D human liver microtissues, 14 day repeat-dose treatment
[6] = system: primary human hepatocytes (PHH); assay: Cytotoxicity (cellular ATP, CellTiter-Glo) in 2D plated primary human hepatocytes, 48 h treatment; format: cell-based; conditions: for IC50: read-out: Geomean IC50;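 as to all read-outs here: 384-well plates, luminescence read-out, normalized to vehicle wells with 1% DMSO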
Method: Cryopreserved PHH (lot IZT) were thawed in InVitroGro HT™ thawing media at 37 °C, pelleted, and resuspended. Viable hepatocytes were counted by Trypan blue exclusion and plated in black-walled, BioCoat™ collagen 384-well plates at 13,000 cells/well in InVitroGro CP™ plating media supplemented with 1% Torpedo™ Antibiotic Mix and 5% fetal bovine serum and incubated overnight for 18 h. Cells were then treated with compounds for 48 h diluted in InVitroGro HI™ incubation media containing 1% Torpedo Antibiotic Mix, 10% fetal bovine serum, and 1% DMSO. […] Luminescence was determined on an EnVision™ Muliplate Reader (PerkinElmer, Waltham, MA, USA), and data were normalized to vehicle (1% DMSO) control wells.

[7] = Table 1, ref Garside et al. (2014)
[8] = clinical DILI severity category, 1-5
[9] = table S-4, ref Garside et al. 2014
[10] = human Cmax total, used for IC50/Cmax
[11] = human total plasma Cmax, ref literature values
[12] = Homo sapiens, hLiMT, 5/6 days, ATP content
[13] = Homo sapiens, Hepatocyte, 336 h, read-out: Geomean IC50 [µM]
[14] = Hepatocyte, 2D primary human hepatocytes (lot IZT), 48 h treatment, total cellular ATP content
[15] = Homo sapiens, 336 h, read-out: IC50 LONG
[16] = read-out: Geomean IC50, decrease in total cellular ATP content, hLiMT treated for 14 days, hepatocyte lot IZT (except Dexamethasone) co-cultured with NPCs, n=1 or geometric mean
[17] = 2D primary human hepatocytes (lot IZT), 48 h treatment, total cellular ATP content

| Structure (SMILES) | FDA DILI Classification DILI severity score [1] | LTKB DILI classification [1] | DILI severity category [2, 7] | DILI severity category [2, 8] | DILI category ([2]; ref Garside et al. 2014) | DILI severity category [2, 9] | Cmax [3, 10] [µM] | Cmax [3, 11] [µM] | IC50 [4, 12] [µM] | IC50 [5, 13] [µM] | IC50 [6, 14] [µM] | IC50 [5, 15] [µM] | IC50 [5, 16] [µM] | IC50 [6, 17] [µM] | cytotoxicity IC50 detected ([6]; PHH 48 h, in words) | Cmax ([3]; human, in vivo) [µM] | IC50 ([4]; Homo sapiens) [µM] | IC50 ([6]; Homo sapiens, Hepatocyte, 48 h) [µM] | IC50 ([5]; Homo sapiens, 336 h, read-out: IC50 (ATP-assay)) [µM] | IC50 ([4]; hLiMT, 5/6 days, ATP content) [µM] |
| --- | --- | --- | --- | --- | --- | --- | --- | --- | --- | --- | --- | --- | --- | --- | --- | --- | --- | --- | --- | --- |
| O=C1CN(/N=C/c2ccc([N+](=O)[O-])o2)C(=O)N1 [Nitrofurantoin] | 8 | most DILI concern | 2: High clinical DILI concern (N = 23) | 2. High Clinical DILI Concern | 2. High Clinical DILI Concern | 2 | 21 | 21 | 100 | – | – | – | – | – | – | – | – | – | – | – |
| CC1(C)S[C@@H]2[C@H](NC(=O)COc3ccccc3)C(=O)N2[C@H]1C(=O)O [Penicillin V] | – | – | – | – | – | – | 14.3 | 14.3 | 100 | > 100 | > 100 | – | – | – | – | – | – | – | – | – |
| [H]/N=C(/N)N/C(=N/[H])NCCc1ccccc1 [Phenformin] | – | – | 3: Low clinical DILI concern (N = 23) | 3. Low Clinical DILI Concern | 3. Low Clinical DILI Concern | 3 | 0.63 | 0.63 | 7.7 | < 12.5 | 5.1 | 12.5 | – | – | – | – | – | – | – | – |
| O=c1[nH]c2ccccc2n1C1CCN(CCCC(c2ccc(F)cc2)c2ccc(F)cc2)CC1 [Pimozide] | 0 | no DILI concern | 3: Low clinical DILI concern (N = 23) | 3. Low Clinical DILI Concern | 3. Low Clinical DILI Concern | – | 0.11 | 0.11 | – | > 6 | 17.6 | – | – | – | – | – | – | – | – | – |
| CCc1ccc(CCOc2ccc(CC3SC(=O)NC3=O)cc2)nc1 (stereo not drawn) [Pioglizatone, Pioglitazone] | 3 | less DILI concern | 3: Low clinical DILI concern (N = 23) | 3. Low Clinical DILI Concern | 3. Low Clinical DILI Concern | – | 2.95 | 2.95 | – | > 15.6 | > 125 | – | – | – | – | – | – | – | – | – |
| CCN(CC)CCCC(C)Nc1c2ccc(Cl)cc2nc2ccc(OC)cc12 (stereo not drawn) [Quinacrine] | – | – | – | – | – | – | – | 258 | 3.7 | > 2 | 7.3 | 2 | – | – | – | – | – | – | – | – |
| Cc1cc2c(cc1CC(=O)c1sccc1S(=O)(=O)Nc1onc(C)c1Cl)OCO2 [Sitax(s)entan] | 8 | most DILI concern | 1: Severe clinical DILI (N = 23) | 1. Severe Clinical DILI | 1. Severe Clinical DILI | – | 28.6 | 28.6 | – | – | – | – | 249 | > 500 | no IC50 values were detected | – | – | – | – | – |
| Cc1cn([C@H]2C=C[C@@H](CO)O2)c(=O)[nH]c1=O [Stavudine] | 8 | most DILI concern | 1: Severe clinical DILI (N = 23) | 1. Severe Clinical DILI | 1. Severe Clinical DILI | – | 3.46 | 3.46 | – | > 500 | > 500 | – | – | – | – | – | – | – | – | – |
| CCN(CC)CCNC(=O)c1c(C)[nH]c(/C=C2\C(=O)Nc3ccc(F)cc32)c1C [Sunitinib] | 8 | most DILI concern | 1: Severe clinical DILI (N = 23) | 1. Severe Clinical DILI | 1. Severe Clinical DILI | – | – | 70.8 | – | ~2 | 13.3 | – | – | – | – | – | – | – | – | – |
| Cn1c(=O)c2[nH]cnc2n(C)c1=O [Theophylline] | – | – | – | – | – | – | – | – | – | > 100 | – | – | – | – | – | 83.8 | 100 | > 100 | – | – |
| CCOC(=O)CN[C@@H](C(=O)N1CC[C@H]1C(=O)NCc1ccc(/C(N)=N\O)cc1)C1CCCCC1 [Ximelagatran] | – | – | – | – | – | – | 0.45 | 0.45 | 200 | ~151 | > 200 | 151 | – | – | – | – | – | – | 121 | – |
| CC(c1cc2ccccc2s1)N(O)C(N)=O (stereo not drawn) [Zileuton] | 5 | most DILI concern | 2: High clinical DILI concern (N = 23) | 2. High Clinical DILI Concern | 2. High Clinical DILI Concern | – | 13.1 | 13.1 | – | > 100 | > 100 | – | – | – | – | – | – | – | – | – |
| C[C@]12CC[C@@H]3c4ccc(O)cc4CC[C@H]3[C@@H]1CC[C@@H]2O [beta-Estradiol] | – | – | – | – | – | – | 0.0006 | 0.0006 | – | – | – | – | 13.5 | > 100 | – | – | – | – | – | 42 |
